Our source for the IC50 values is patent US11891365B2, “3-alkyl-4-amido-bicyclic [4,5,0] hydroxamic acids as HDAC inhibitors” (Valo Health, Inc., priority 2015, dated 2024).

This assay concerns the target T1, Full length human recombinant HDAC6 protein (Homo sapiens, UniProt Q9UBN7).
T1 sequence (Q9UBN7 1-1215): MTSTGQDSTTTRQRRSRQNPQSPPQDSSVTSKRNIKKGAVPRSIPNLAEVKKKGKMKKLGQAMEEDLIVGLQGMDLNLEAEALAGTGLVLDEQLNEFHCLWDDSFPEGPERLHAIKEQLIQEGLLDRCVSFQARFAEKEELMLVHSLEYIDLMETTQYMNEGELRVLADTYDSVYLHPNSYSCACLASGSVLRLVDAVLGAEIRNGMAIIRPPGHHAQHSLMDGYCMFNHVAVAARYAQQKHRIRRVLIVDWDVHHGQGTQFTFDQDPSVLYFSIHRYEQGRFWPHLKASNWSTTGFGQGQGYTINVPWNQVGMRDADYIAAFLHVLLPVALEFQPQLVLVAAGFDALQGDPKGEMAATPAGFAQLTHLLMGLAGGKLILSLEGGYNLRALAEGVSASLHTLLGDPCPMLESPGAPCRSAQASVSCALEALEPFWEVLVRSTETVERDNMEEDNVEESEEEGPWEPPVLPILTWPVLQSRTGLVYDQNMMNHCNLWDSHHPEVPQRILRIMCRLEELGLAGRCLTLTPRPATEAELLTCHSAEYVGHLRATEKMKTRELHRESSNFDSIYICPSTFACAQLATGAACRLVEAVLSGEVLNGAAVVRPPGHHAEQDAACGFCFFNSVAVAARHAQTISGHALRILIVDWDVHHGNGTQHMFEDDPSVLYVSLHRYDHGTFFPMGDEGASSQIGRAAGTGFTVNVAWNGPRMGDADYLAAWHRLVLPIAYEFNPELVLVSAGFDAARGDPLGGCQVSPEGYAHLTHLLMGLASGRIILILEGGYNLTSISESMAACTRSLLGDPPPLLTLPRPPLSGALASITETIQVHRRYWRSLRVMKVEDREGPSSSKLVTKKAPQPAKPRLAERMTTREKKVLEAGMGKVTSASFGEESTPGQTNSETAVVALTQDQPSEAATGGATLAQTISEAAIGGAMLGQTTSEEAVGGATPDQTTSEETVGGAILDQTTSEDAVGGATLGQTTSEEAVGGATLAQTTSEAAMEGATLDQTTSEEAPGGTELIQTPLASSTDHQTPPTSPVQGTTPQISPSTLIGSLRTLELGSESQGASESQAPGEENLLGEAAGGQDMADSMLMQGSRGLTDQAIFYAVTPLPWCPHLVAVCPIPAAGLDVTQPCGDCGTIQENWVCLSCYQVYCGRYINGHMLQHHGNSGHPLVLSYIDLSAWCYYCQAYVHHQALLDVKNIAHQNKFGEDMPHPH
In words: In vitro histone deacetylase assay: enzymatic HDAC6 electrophoretic mobility shift assay. It counts as biochemical. Particulars: 1 nM enzyme, 2 μM peptide substrate RHKK(Ac)-NH2, 25° C., 12 concentrations; read-out: Inhibitory Concentration (IC50) Values against HDAC6, Activity Range.

Structures are written as SMILES.

Turning to `O=C(NO)c1ccc2c(c1)OCCN(C(=O)C(c1ccccc1)N1CCCCC1=O)C2` (stereo not shown) [N-hydroxy-4-(2-(2-oxopiperidin-1-yl)-2-phenylacetyl)-2,3,4,5-tetrahydrobenzo[f][1,4]oxazepine-8-carboxamide], the IC50 is 100 to 500 nM. Next, `C[C@@H]1COc2cc(C(=O)NO)ccc2CN1C(=O)C1(C)CCC1` [(R)-N-hydroxy-3-methyl-4-(1-methylcyclobutane-1-carbonyl)-2,3,4,5-tetrahydrobenzo[f][1,4]oxazepine-8-carboxamide]: 100 to 500 nM.

As for `C[C@H]1COc2cc(C(=O)NO)ccc2CN1C(=O)c1ccc(F)cc1` [(S)-4-(4-fluorobenzoyl)-N-hydroxy-3-methyl-2,3,4,5-tetrahydrobenzo[f][1,4]oxazepine-8-carboxamide], the IC50 is not above 100 nM. For the compound `CC(=O)N1CCC(C(=O)N2CCOc3cc(C(=O)NO)ccc3C2)C1` (stereo not shown) [4-(1-acetylpyrrolidine-3-carbonyl)-N-hydroxy-2,3,4,5-tetrahydrobenzo[f][1,4]oxazepine-8-carboxamide], the IC50 was in the range of 100 to 500 nM.

With `C[C@H]1COc2cc(C(=O)NO)ccc2CN1C(=O)CCOCC(F)(F)F` [(S)-N-hydroxy-3-methyl-4-(3-(2,2,2-trifluoroethoxy)propanoyl)-2,3,4,5-tetrahydrobenzo[f][1,4]oxazepine-8-carboxamide], the IC50 was not above 100 nM. For `CC(=O)N1Cc2ccc(C(=O)NO)cc2O[C@@H](C)C1` [(S)-4-acetyl-N-hydroxy-2-methyl-2,3,4,5-tetrahydrobenzo[f][1,4]oxazepine-8-carboxamide], the IC50 was more than 500 nM.

For `C[C@@H]1COc2cc(C(=O)NO)ccc2CN1C=O` [(R)-4-formyl-N-hydroxy-3-methyl-2,3,4,5-tetrahydrobenzo[f][1,4]oxazepine-8-carboxamide], the IC50 was not above 100 nM. In the case of `C[C@@H]1CN(C(=O)C2(C)CCC2)Cc2ccc(C(=O)NO)cc2O1` [(R)-N-hydroxy-2-methyl-4-(1-methylcyclobutane-1-carbonyl)-2,3,4,5-tetrahydrobenzo[f][1,4]oxazepine-8-carboxamide] it was not above 100 nM.

Take `O=C(NO)c1ccc2c(c1)O[C@@H](c1ccccc1)CN(C(=O)C1CCOCC1)C2` [(S)-N-hydroxy-2-phenyl-4-(tetrahydro-2H-pyran-4-carbonyl)-2,3,4,5-tetrahydrobenzo[f][1,4]oxazepine-8-carboxamide]: the IC50 was not above 100 nM.

Regarding `O=C(NO)c1ccc2c(c1)OCCN(C(=O)C1CCC3(CCNC3)CC1)C2` (stereo not shown) [N-hydroxy-4-(2-azaspiro[4.5]decane-8-carbonyl)-2,3,4,5-tetrahydrobenzo[f][1,4]oxazepine-8-carboxamide], the IC50 was not above 100 nM. Next, `O=C(NO)c1ccc2c(c1)OCCN(C(=O)C1CCC1)C2` [4-(cyclobutanecarbonyl)-N-hydroxy-2,3,4,5-tetrahydrobenzo[f][1,4]oxazepine-8-carboxamide]: not above 100 nM; `Cn1cccc1C(=O)N1CCOc2cc(C(=O)NO)ccc2C1` [N-hydroxy-4-(1-methyl-1H-pyrrole-2-carbonyl)-2,3,4,5-tetrahydrobenzo[f][1,4]oxazepine-8-carboxamide]: not above 100 nM. Next, `CCCNc1c(C(=O)N2CCOc3cc(C(=O)NO)ccc3C2)sc2ccccc12` [N-hydroxy-4-(3-(propylamino)benzo[b]thiophene-2-carbonyl)-2,3,4,5-tetrahydrobenzo[f][1,4]oxazepine-8-carboxamide]: not above 100 nM; `O=C(NO)c1ccc2c(c1)OCCN(C(=O)C1CC13CCCNC3)C2` (stereo not shown) [N-hydroxy-4-(5-azaspiro[2.5]octane-1-carbonyl)-2,3,4,5-tetrahydrobenzo[f][1,4]oxazepine-8-carboxamide]: more than 500 nM; `O=C(NO)c1ccc2c(c1)OCCN(C(=O)[C@H]1CCCOC1)C2` [(S)-N-hydroxy-4-(tetrahydro-2H-pyran-3-carbonyl)-2,3,4,5-tetrahydrobenzo[f][1,4]oxazepine-8-carboxamide]: not above 100 nM. Next, `C[C@H]1COc2cc(C(=O)NO)ccc2CN1C(=O)c1ccccc1` [(S)-4-benzoyl-N-hydroxy-3-methyl-2,3,4,5-tetrahydrobenzo[f][1,4]oxazepine-8-carboxamide]: not above 100 nM; `O=C(NO)c1ccc2c(c1)OCCN(C(=O)COc1cccc(Cl)c1)C2` [4-(2-(3-chlorophenoxy)acetyl)-N-hydroxy-2,3,4,5-tetrahydrobenzo[f][1,4]oxazepine-8-carboxamide]: 100 to 500 nM. As to `C[C@H]1COc2cc(C(=O)NO)ccc2CN1C(=O)C1CS(=O)(=O)C1` [(S)-4-(1,1-dioxidothietane-3-carbonyl)-N-hydroxy-3-methyl-2,3,4,5-tetrahydrobenzo[f][1,4]oxazepine-8-carboxamide], the IC50 was not above 100 nM. Next, `CC(=O)N1Cc2ccc(C(=O)NO)cc2O[C@H](C)C1` [(R)-4-acetyl-N-hydroxy-2-methyl-2,3,4,5-tetrahydrobenzo[f][1,4]oxazepine-8-carboxamide]: more than 500 nM; `O=C(NO)c1ccc2c(c1)OCCN(C(=O)C1(c3ccncc3)CC1)C2` [N-hydroxy-4-(1-(pyridin-4-yl)cyclopropane-1-carbonyl)-2,3,4,5-tetrahydrobenzo[f][1,4]oxazepine-8-carboxamide]: not above 100 nM.

With `O=C(NO)c1ccc2c(c1)OCCN(C(=O)CC1CC1)C2` [4-(2-cyclopropylacetyl)-N-hydroxy-2,3,4,5-tetrahydrobenzo[f][1,4]oxazepine-8-carboxamide], the IC50 is not above 100 nM. Next, `O=C(NO)c1ccc2c(c1)OCCN(C(=O)C(c1ccccc1)n1cnnn1)C2` (stereo not shown) [N-hydroxy-4-(2-phenyl-2-(1H-tetrazol-1-yl)acetyl)-2,3,4,5-tetrahydrobenzo[f][1,4]oxazepine-8-carboxamide]: 100 to 500 nM; `COc1ccc(CC(C(=O)N2CCOc3cc(C(=O)NO)ccc3C2)c2ccccc2)cc1` (stereo not shown) [N-hydroxy-4-(3-(4-methoxyphenyl)-2-phenylpropanoyl)-2,3,4,5-tetrahydrobenzo[f][1,4]oxazepine-8-carboxamide]: 100 to 500 nM. Next, `COC[C@@H]1CN(C(=O)C2CCOCC2)Cc2ccc(C(=O)NO)cc2O1` [(S)-N-hydroxy-2-(methoxymethyl)-4-(tetrahydro-2H-pyran-4-carbonyl)-2,3,4,5-tetrahydrobenzo[f][1,4]oxazepine-8-carboxamide]: 100 to 500 nM. Next, `O=C(NO)c1ccc2c(c1)OCCN(C(=O)Cc1ccc(C(F)(F)F)cc1)C2` [N-hydroxy-4-(2-(4-(trifluoromethyl)phenyl)acetyl)-2,3,4,5-tetrahydrobenzo[f][1,4]oxazepine-8-carboxamide]: more than 500 nM; `CC1(C(=O)N2Cc3ccc(C(=O)NO)cc3O[C@H](c3ccccc3)C2)CCC1` [(R)-N-hydroxy-4-(1-methylcyclobutane-1-carbonyl)-2-phenyl-2,3,4,5-tetrahydrobenzo[f][1,4]oxazepine-8-carboxamide]: 100 to 500 nM. On to `COC(C)(C)C(=O)N1Cc2ccc(C(=O)NO)cc2OC[C@@H]1C` [(S)-N-hydroxy-4-(2-methoxy-2-methylpropanoyl)-3-methyl-2,3,4,5-tetrahydrobenzo[f][1,4]oxazepine-8-carboxamide], for which the IC50 was not above 100 nM. Next, `COc1ccc(C(=O)N2CCOc3ccc(C(=O)NO)cc3C2)cc1` [N-hydroxy-4-(4-methoxybenzoyl)-2,3,4,5-tetrahydrobenzo[f][1,4]oxazepine-7-carboxamide]: more than 500 nM.
